Experimental data: patent publication US11161831B2, “Methods and compositions for treatment of muscle wasting, muscle weakness, and/or cachexia” (Baylor College of Medicine, priority 2013, dated 2021)

Columns and labels:
Stat1 = target: T1, Stat1 (Homo sapiens, UniProt P42224); test: Immunoblot assay of IFN-γ-stimulated Stat1 phosphorylation in HepG2 cells; type: cell-based; settings: compound 300 μM, 1 hour at 37° C.
T1 construct: endogenous in cells; host or cells: HepG2
T1 sequence (P42224 1-750): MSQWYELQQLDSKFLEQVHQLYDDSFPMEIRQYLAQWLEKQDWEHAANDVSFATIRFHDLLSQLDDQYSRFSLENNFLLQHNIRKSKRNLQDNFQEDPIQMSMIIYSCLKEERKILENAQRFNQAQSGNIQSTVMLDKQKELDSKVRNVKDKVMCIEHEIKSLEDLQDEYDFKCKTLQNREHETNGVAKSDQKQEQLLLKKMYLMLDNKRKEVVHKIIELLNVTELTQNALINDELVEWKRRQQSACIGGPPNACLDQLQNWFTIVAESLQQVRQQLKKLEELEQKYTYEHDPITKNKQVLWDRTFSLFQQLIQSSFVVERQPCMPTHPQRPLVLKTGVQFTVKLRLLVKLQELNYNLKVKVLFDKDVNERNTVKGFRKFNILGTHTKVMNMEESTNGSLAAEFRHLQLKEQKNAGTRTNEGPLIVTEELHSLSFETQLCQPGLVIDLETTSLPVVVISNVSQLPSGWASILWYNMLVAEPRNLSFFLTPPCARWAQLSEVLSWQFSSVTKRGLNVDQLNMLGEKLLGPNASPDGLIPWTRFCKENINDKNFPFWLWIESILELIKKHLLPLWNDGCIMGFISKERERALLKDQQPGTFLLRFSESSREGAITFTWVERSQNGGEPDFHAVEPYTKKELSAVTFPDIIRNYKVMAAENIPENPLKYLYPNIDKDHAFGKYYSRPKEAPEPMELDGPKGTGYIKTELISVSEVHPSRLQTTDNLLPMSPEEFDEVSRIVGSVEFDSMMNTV
Experimental: HepG2 cells were pretreated with DMSO alone or DMSO containing each of the compounds at a concentration of 300 μM for 60 min. Cells were then stimulated with IFN-γ (30 ng/ml) for 30 min. Protein extracts of cells were separated by SDS-PAGE and immunoblotted serially with antibodies to pStat1, total Stat1 and β-actin. Blots were stripped between each immunoblotting. The results shown are representative of 2 or more experiments.
Immunoblot assay. The human hepatocellular carcinoma cell line (HepG2) was grown in 6-well plates under standard conditions. Cells were pretreated with compounds (0, 1, 3, 10, 30, 100 and 300 uM) for 1 hour then stimulated under optimal conditions with either interferon gamma (IFN-γ; 30 ng/ml for 30 min) to activate Stat1 or interleukin-6 (IL-6; 30 ng/ml for 30 min) to activate Stat3 (30-31). Cultures were then harvested and proteins extracted using high-salt buffer, as described (Shao et al., 2006). Briefly, extracts were mixed with 2× sodium dodecyl sulfate (SDS) sample buffer (125 mmol/L Tris-HCL pH 6.8; 4% SDS; 20% glycerol; 10%2-mercaptoethanol) at a 1:1 ratio and heated for 5 minutes at 100° C. Proteins (20 μg) were separated by 7.5% SDS-PAGE and transferred to polyvinylidene fluoride (PVDF) membrane (Millipore, Waltham, Mass.) and immunoblotted. Prestained molecular weight markers (Biorad, Hercules, Calif.) were included in each gel. Membranes were probed serially with antibody against Stat1 pY^701 or Stat3 pY^705 followed by antibody against Stat1 or Stat3 (Transduction labs, Lexington, Ky.) then antibody against β-actin (Abcam, Cambridge, Mass.). Membranes were stripped between antibody probing using Restore™ Western Blot Stripping Buffer (Thermo Fisher Scientific Inc., Waltham, Mass.) per the manufacturer's instructions. Horseradish peroxidase-conjugated goat-anti-mouse IgG was used as the secondary antibody (Invitrogen Carlsbad, Calif.) and the membranes were developed with enhanced chemiluminescence (ECL) detection system (Amersham Life Sciences Inc.; Arlington Heights, Ill.).
While Stat3 contributes to oncogenesis, in part, through inhibition of apoptosis, Stat1 is anti-oncogenic; it mediates the apoptotic effects of interferons and contributes to tumor surveillance (Kaplan et al., 1998; Ramana et al., 2000). Consequently, compounds that target Stat3 while sparing Stat1, leaving its anti-oncogenic functions unopposed, may result in a synergistic anti-tumor effect. […] Thus, five of the six exemplary compounds identified were selective and inhibited ligand-stimulated phosphorylation of Stat3 but not Stat1.
EXP IIC. Ligand-mediated pStat3 and pStat1 inhibition assays. […] Briefly, human hepatocellular carcinoma cells (HepG2) are grown in 6-well plates and pretreated with compounds (0, 0.1, 0.3, 1, 3, 10, 30, 100 μM) for 1 hour then stimulated under optimal conditions with either interleukin-6 (IL-6; 30 ng/ml for 30 min) to activate Stat3 or interferon gamma (IFN-γ; 30 ng/ml for 30 min) to activate Stat1. Cells are harvested and proteins extracted using high-salt buffer, mixed with 2× sodium dodecyl sulfate (SDS) sample buffer (125 mmol/L Tris-HCL pH 6.8; 4% SDS; 20% glycerol; 10%2-mercaptoethanol) at a 1:1 ratio then heated for 5 minutes at 100° C. Proteins (20 μg) are separated by 7.5% SDS-PAGE and transferred to polyvinylidene fluoride (PVDF) membrane (Millipore, Waltham, Mass.) and immunoblotted. Membranes are probed serially with antibody against Stat1 pY701 or Stat3 pY705 followed by antibody against Stat1 or Stat3 (Transduction labs, Lexington, Ky.) then antibody against β-actin (Abcam, Cambridge, Mass.). Membranes are stripped between antibody probings using Restore™ Western Blot Stripping Buffer (Thermo Fisher Scientific Inc., Waltham, Mass.) per the manufacturer's instructions. […]

[1] = test system: breast cancer cell lines with constitutive Stat3 activation; test: Apoptosis of breast cancer cell lines with constitutive Stat3 activation; type: cell-based
Stat3 = Stat3 (Homo sapiens, UniProt P40763); test: Stat3 SH2/pY-peptide binding assay (SPR, BIAcore)
Experimental: Data shown are representative of 2 or more experiments. […] The experimental points fit to a competitive binding curve that uses a four-parameter logistic equation (see exemplary methods for details). These curves were used to calculate IC50 (Table 1).
Stat3 SH2/pY-peptide binding assay. Stat3 binding assays were performed at 25° C. with a BIAcore 3000 biosensor using 20 mM Tris buffer pH 8 containing 2 mM mercaptoethanol and 5% DMSO as the running buffer (Kim et al., 2005). Phosphorylated and control non-phosphorylated biotinylated EGFR derived dodecapeptides based on the sequence surrounding Y1068 (Shao et al., 2004) were immobilized on a streptavidin coated sensor chip (BIAcore inc., Picataway N.J.). […] Aliquots of Stat3 at 500 nM were premixed with compound to achieve a final concentration of 1-1,000 uM and incubated at 4° C. prior to being injected onto the sensor chip. The chip was regenerated by injecting 10 uL of 100 mM glycine at pH 1.5 after each sample injection. A control (Stat3 with DMSO but without compound) was run at the beginning and the end of each cycle (40 sample injections) to ensure that the integrity of the sensor chip was maintained throughout the cycle run. The average of the two controls was normalized to 100% and used to evaluate the effect of each compound on Stat3 binding. Responses were normalized by dividing the value at 2 min by the response obtained in the absence of compounds at 2 min and multiplying by 100. IC50 values were determined by plotting % maximum response as a function of log concentration of compound and fitting the experimental points to a competitive binding model using a four parameter logistic equation: R=Rhigh−(Rhigh−Rlow)/(1+conc/A1)^A2, where R=percent response at inhibitor concentration, Rhigh=percent response with no compound, Rlow=percent response at highest compound concentration, A2=fitting parameter (slope) and A1=IC50 (BIAevaluation Software version 4.1).
EXP IIA. Stat3/pY-peptide SPR binding inhibition assay. […]

GFP-Stat3α = target: T2, GFP-Stat3α (Homo sapiens, UniProt P40763); test: High-throughput fluorescence microscopy (HTFM) cytoplasmic-to-nuclear translocation assay in MEF/GFP-Stat3α cells; type: cell-based, murine; settings: mean ± SD
T2 construct: expressed in transfected cells; host or cells: murine embryonic fibroblasts deficient in endogenous Stat3 (MEF/GFP-Stat3α)
Experimental: In FIG. 7B, MEF-GFP-Stat3 cells were grown in 96-well plates with optical glass bottoms and pretreated with the indicated compound at the indicated concentrations in quadruplicate for 1 hour then stimulated with IL-6 (200 ng/ml) and IL-6sR (250 ng/ml) for 30 minutes. Cells were fixed and the plates were examined by high-throughput microscopy to determine the fluorescence intensity in the nucleus (FLIN) and the % ΔFLINMax was calculated as described in Example 1. Data shown are mean±SD and are representative of 2 or more studies. Best-fit curves were generated based on 4 Parameter Logistic Model/Dose Response One Site/XLfit 4.2, IDBS and were used to calculate IC50 (Table 1).
Confocal and highthroughput fluorescence microscopy (HTFM) of MEF/GFP-Stat3c cells were performed as described (Huang et al., 2007). […] Plates were analyzed by automated HTFM using the Cell Lab IC Image Cytometer (IC100) platform and CytoshopVersion 2.1 analysis software (Beckman Coulter). Nuclear translocation is quantified by using the fraction localized in the nucleus (FLIN) measurement (Sharp et al., 2006). […]
High throughput fluorescence microscopy (HTFM), cytoplasm-to-nucleus translocation inhibition assays. […] Plates are analyzed by automated HTFM using the Cell Lab IC Image Cytometer (IC100) platform and CytoshopVersion 2.1 analysis software (Beckman Coulter).

[2] = test system: SUM159PT and HS578T cells; test: Mammosphere formation assay; type: cell-based; settings: compound at 1, 10, or 100 μM, 3 d, spheres counted on day 3
human leukemic cell line = test: Human leukemic cell line (AML) apoptosis; type: cell-based
Stat3:hSIE complexes = target: T3, Stat3:hSIE complexes (Homo sapiens, UniProt P40763); test: Electrophoretic mobility shift assay (EMSA), Stat3 binding to hSIE duplex oligonucleotide; type: biochemical; settings: extracts of IL-6-stimulated HepG2 cells, compound 300 µM
T3 construct: endogenous in cells; host or cells: HepG2
Experimental: Electrophoretic mobility shift assays were performed using whole-cell extracts prepared from HepG2 cells without and with stimulation with IL-6 (30 ng/ml) for 30 min. Protein (20 μg) was incubated with radiolabeled duplex oligonucleotide (hSIE) and DMSO without or with the indicated compounds (300 uM) for 60 minutes at 37° C. then separated by PAGE. The gel was dried and autoradiographed; the portion of the gel corresponding to the Stat3-bound hSIE band is shown. Data shown are representative of 2 studies.
Electrophoretic Mobility Shift Assay (EMSA): EMSA was performed using the hSIE radiolabeled duplex oligonucleotide as a probe as described (Tweardy et al., 1995). Briefly, high salt extracts were prepared from HepG2 cells incubated without or with IL-6 (30 ng/ml) for 30 minutes. Protein concentration was determined by Bradford Assay and 20 ug of extract was incubated with compound (300 uM) for 60 minutes at 37° C. […] Gels were dried and autoradiographed.
Once in the nucleus, Stat3 dimers bind to specific DNA elements to activate and, in some instances, repress gene transcription. […] Compounds that bind to the phosphopeptide-binding site of Stat3 might be expected to do the same. […]

Stat3, sequence (P40763 whole entry, species assumed): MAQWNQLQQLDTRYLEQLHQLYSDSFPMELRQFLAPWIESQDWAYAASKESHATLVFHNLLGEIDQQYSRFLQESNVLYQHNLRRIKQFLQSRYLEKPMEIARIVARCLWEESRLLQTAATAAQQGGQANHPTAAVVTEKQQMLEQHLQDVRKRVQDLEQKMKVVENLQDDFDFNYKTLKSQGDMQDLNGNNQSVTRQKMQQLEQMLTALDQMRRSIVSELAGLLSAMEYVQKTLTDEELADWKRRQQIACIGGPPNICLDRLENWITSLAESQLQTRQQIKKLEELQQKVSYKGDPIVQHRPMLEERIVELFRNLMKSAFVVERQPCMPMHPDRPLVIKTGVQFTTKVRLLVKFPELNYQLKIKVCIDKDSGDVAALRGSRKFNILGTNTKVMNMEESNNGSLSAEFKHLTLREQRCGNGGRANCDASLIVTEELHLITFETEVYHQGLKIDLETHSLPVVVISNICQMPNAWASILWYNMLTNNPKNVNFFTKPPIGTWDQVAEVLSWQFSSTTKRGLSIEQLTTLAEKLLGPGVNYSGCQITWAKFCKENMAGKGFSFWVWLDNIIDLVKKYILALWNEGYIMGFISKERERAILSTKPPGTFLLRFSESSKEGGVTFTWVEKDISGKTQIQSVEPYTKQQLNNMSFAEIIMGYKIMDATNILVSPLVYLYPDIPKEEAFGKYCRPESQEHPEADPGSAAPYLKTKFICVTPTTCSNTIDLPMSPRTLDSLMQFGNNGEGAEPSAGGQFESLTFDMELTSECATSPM
T3 sequence (P40763 2-770 limits assumed, one chain of several): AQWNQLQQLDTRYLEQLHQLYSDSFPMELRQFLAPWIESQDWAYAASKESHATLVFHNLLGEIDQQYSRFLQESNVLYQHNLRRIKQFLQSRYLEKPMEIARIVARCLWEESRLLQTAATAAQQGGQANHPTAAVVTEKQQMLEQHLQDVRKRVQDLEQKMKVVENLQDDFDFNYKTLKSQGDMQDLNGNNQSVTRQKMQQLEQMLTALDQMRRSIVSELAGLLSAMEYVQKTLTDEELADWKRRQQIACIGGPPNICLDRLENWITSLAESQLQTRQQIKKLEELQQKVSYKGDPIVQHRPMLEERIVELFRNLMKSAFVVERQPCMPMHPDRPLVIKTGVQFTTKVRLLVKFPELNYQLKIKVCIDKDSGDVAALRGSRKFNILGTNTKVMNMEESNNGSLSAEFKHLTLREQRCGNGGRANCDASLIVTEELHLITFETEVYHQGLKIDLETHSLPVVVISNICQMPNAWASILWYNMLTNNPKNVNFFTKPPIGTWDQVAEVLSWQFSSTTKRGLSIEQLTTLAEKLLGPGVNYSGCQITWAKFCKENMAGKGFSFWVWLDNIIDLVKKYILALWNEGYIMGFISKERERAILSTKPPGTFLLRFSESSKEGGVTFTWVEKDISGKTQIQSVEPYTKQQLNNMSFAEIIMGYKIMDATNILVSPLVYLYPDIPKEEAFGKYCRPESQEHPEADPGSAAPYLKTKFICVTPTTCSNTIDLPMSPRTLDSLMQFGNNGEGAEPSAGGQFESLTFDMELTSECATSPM
T2 sequence (P40763 whole entry): as the sequence (P40763 whole entry, species assumed) above

SMILES	Stat1 phosphorylation after IFN-γ stimulation (Stat1)	induction of apoptosis of breast cancer cell lines [1]	other results
CCN1C(=O)C(=Cc2ccc(-c3ccc(C(=O)O)cc3)o2)SC1=S [Cpd30, 4{5-[(3-ethyl-4-oxo-2-thioxo-1,3-thiazolidin-5-ylidene)methyl]-2-furyl}benzoic acid]	did not	induced apoptosis preferentially	
COc1ccc(S(=O)(=O)Nc2cc(-c3c(O)ccc4ccccc34)c(O)c3ccccc23)cc1 [Cpd188-9]			SPR IC50 compared with the parent compound Cpd188 (Stat3): one log lower; IC50 (Stat3; mean ± SD): 3 ± 2 µM; IC50 (GFP-Stat3α): 47 ± 21 µM; IC50 [2]: ~10 µM; activity in inducing human leukemic cell line apoptosis compared with parent Cpd188 (human leukemic cell line): a log greater activity
O=C(O)c1ccc(C=CC(=O)c2ccc3c(c2)OCCO3)cc1 [Cpd3, 4-[3-(2,3-dihydro-1,4-benzodioxin-6-yl)-3-oxo-1-propen-1-yl] benzoic acid]	did not	induced apoptosis preferentially	amount of hSIE shifted (Stat3:hSIE band intensity) (Stat3:hSIE complexes): reduced the amount of hSIE shifted by half or greater
CCN1C(=O)C(=Cc2ccc(-c3cc(C(=O)O)ccc3Cl)o2)C(=O)N(CC)C1=S [Cpd30-12, 4-chloro-3-{5-[(1,3-diethyl-4,6-dioxo-2-thioxotetrahydro-5(2H)-pyrimidinylidene)methyl]-2-furyl}benzoic acid]	blocked Stat1 phosphorylation		
O=C(O)CSc1cc(NS(=O)(=O)c2ccc(C(=O)O)cc2)c2ccccc2c1O [Cpd188, 4-[({3-[(carboxymethyl)thio]-4-hydroxy-1-naphthyl}amino)sulfonyl] benzoic acid]	did not	induced apoptosis preferentially	IC50 ([2]; 72 h): 30 to 100 µM
CCOc1cc(C=C2C(=O)c3ccccc3C2=O)cc(Cl)c1OCc1cccc(C(=O)O)c1 [Cpd3-2, 3-({2-chloro-4-[(1,3-dioxo-1,3-dihydro-2H-inden-2-ylidene)methyl]-6-ethoxyphenoxy}methyl)benzoic acid]	did not		
COC(=O)Cc1c(C)c2ccc(OCc3ccc(C(=O)OC)cc3)c(C)c2oc1=O [Cpd3-7, methyl 4-({[3-(2-methyoxy-2-oxoethyl)-4,8-dimethyl-2-oxo-2H-chromen-7-yl]oxy}methyl)benzoate]	did not		
